Reference: US6495591B1, “Fungal efflux pump inhibitors” (Essential Therapeutics, Inc., priority 1997, dated 2002)
pIC50: −log10 of the molar value. Where two headings read alike, the source gives them in different places.

Columns and labels:
[1] = target: pCDRI (ABC) efflux pump in S. cerevisiae YEM-1 (Candida albicans, UniProt P43071); assay: cell-based; assay type: cell-based, C. albicans
[2] = target: pCDR2 (ABC) efflux pump in S. cerevisiae YEM-37 (Candida albicans, UniProt P78595); assay: cell-based; assay type: cell-based, C. albicans
[3] = target: pCgCDR (ABC) efflux pump in S. cerevisiae YEM-39 (Candida glabrata, UniProt Q6FK23); assay: cell-based; assay type: cell-based, C. glabrata
[4] = target: pBEN (MF) efflux pump in S. cerevisiae YEM-2 (Candida albicans, UniProt P28873); assay: cell-based; assay type: cell-based, C. albicans
[5] = target: pFLU (MF) efflux pump in S. cerevisiae YEM-38 (Candida albicans, UniProt G1UB37); assay: cell-based; assay type: cell-based, C. albicans
[6] = test system: pCgBEN (MF) efflux pump in S. cerevisiae YEM-40; assay type: cell-based, C. glabrata; details: YEM-40 pCgBEN; fluconazole fixed at FLUhalf 2.8
[7] = test system: YEM 13 C. albicans BEN up; assay: microbe, parasite or virus in culture; assay type: cell-based; details: YEM 13, 24 hrs, 80% inhibition; for MIC of compound in the presence of fluconazole (+): 1/8 × MIC of fluconazole
[8] = test system: YEM 15 C. albicans, CDR1CDR2 up; assay: microbe, parasite or virus in culture; assay type: cell-based; details: YEM 15, 24 hrs, 80% inhibition; for MIC of compound in the presence of fluconazole (+): 1/8 × MIC of fluconazole
YEM 53 C. krusei = assay: FEPI MIC with/without 1/8 fluconazole MIC at 24 hrs (Table 11); assay type: cell-based; details: for MIC of compound in the absence of fluconazole (−): YEM 53, 24 hrs, 80% inhibition
[9] = test system: YEM 17 C. glabrata, CgCDR up; assay type: cell-based; details: 24 hrs, 80% inhibition; for MIC of compound in the presence of fluconazole (+): 1/8 × MIC of fluconazole
YEM 51 C. glabrata wt = assay: FEPI MIC with/without 1/8 fluconazole MIC at 24 hrs (Table 11); assay type: cell-based; details: for MIC of compound in the absence of fluconazole (−): YEM 51, 24 hrs, 80% inhibition
YEM 30 C. albicans wt = assay: as above; assay type: cell-based; details: for MIC of compound in the absence of fluconazole (−): YEM 30, 24 hrs, 80% inhibition
[10] = test system: YEM 24 C. albicans ΔCDR1, ΔCDR2; assay: microbe, parasite or virus in culture; assay type: cell-based; details: YEM 24, 24 hrs, 80% inhibition; for MIC of compound in the presence of fluconazole (+): 1/8 × MIC of fluconazole
[11] = test system: YEM 27 C. albicans ΔCDR1ΔCDR2 ΔBENΔFLU1; assay: microbe, parasite or virus in culture; assay type: cell-based; details: YEM 27, 24 hrs, 80% inhibition; for MIC of compound in the presence of fluconazole (+): 1/8 × MIC of fluconazole
Aspergillus fumigatus = assay: FEPI MICs in combination with 1/4 the azole's MIC (Table 12); assay type: cell-based; details: for FEPI MIC with itraconazole, 60% Inh / FEPI MIC with itraconazole, 80% Inh: itraconazole 0.063 μg/ml (1/4 MIC); for FEPI MIC with itraconazole, 60% Inh / FEPI MIC with ketoconazole, 60% Inh: 60% inhibition; for FEPI MIC with itraconazole, 80% Inh / FEPI MIC with ketoconazole, 80% Inh / FEPI MIC (alone): 80% inhibition; for FEPI MIC with ketoconazole, 60% Inh / FEPI MIC with ketoconazole, 80% Inh: ketoconazole 4 μg/ml (1/4 MIC); for FEPI MIC (alone): no azole, 35° C., CM Broth
Experimental: The combinations were tested against a series of Candida strain with known expression of efflux pumps or with complete deletion of all known pumps and Aspergillus fumigatus. Results are reported as minimum inhibitory concentration (MIC) of […] in the presence or absence of […]. A total of 27 distinct milbemycins were studied.

[12] = test system: P388 cell line (mouse leukemia), adriamycin sensitive; assay: Adriamycin cytotoxicity (MTT), P-glycoprotein assay
Experimental: (§1) The inhibitory effect of milbemycin β1 against the mammalian P-glycoprotein multi-drug resistant pump was determined following the procedure described by Tsuruo et al (Cancer Res., 1981. 41:1967-1972) with slight modification. The cytotoxicity of antitumor agent, adriamycin, against adriamycin sensitive P388 cell line (mouse leukemia) and its adriamycin resistant subline line (P388/ADM) was measured in the presence of various concentrations of milbemycin β1. […] The assay is performed in serum-free media containing 20 μM of 2-mercaptoethanol. Chemosensitivity to adriamycin was determined […] based on the reduction of MTT (3-[4,5-dimethylthiazol-2-yl]-2,5-diphenyltetrazolium bromide) into blue formazan.

[13] = test system: P388/ADM, adriamycin resistant subline; assay: as above
Experimental: as §1

[14] = test system: mammalian P-glycoprotein multi-drug resistant pump; assay type: cell-based, mouse; details: no inhibitor (None)
Experimental: as §1

Sequence of pBEN (MF) efflux pump in S. cerevisiae YEM-2 (P28873 whole entry): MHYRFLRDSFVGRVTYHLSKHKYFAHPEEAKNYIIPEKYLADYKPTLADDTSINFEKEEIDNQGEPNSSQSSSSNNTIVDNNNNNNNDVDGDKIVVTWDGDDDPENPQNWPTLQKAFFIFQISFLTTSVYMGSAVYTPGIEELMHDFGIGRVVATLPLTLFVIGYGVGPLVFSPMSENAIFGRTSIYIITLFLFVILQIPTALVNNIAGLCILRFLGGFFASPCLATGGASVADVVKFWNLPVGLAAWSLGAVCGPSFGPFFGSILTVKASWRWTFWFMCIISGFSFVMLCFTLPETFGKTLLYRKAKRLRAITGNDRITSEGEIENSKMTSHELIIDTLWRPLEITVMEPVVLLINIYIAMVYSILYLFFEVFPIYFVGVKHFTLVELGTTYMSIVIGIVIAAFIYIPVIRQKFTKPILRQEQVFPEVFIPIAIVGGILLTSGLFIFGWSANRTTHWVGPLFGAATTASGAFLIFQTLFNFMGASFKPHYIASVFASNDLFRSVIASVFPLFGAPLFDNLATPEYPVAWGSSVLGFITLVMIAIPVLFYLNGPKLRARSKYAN
Sequence of pCDR2 (ABC) efflux pump in S. cerevisiae YEM-37 (P78595 whole entry): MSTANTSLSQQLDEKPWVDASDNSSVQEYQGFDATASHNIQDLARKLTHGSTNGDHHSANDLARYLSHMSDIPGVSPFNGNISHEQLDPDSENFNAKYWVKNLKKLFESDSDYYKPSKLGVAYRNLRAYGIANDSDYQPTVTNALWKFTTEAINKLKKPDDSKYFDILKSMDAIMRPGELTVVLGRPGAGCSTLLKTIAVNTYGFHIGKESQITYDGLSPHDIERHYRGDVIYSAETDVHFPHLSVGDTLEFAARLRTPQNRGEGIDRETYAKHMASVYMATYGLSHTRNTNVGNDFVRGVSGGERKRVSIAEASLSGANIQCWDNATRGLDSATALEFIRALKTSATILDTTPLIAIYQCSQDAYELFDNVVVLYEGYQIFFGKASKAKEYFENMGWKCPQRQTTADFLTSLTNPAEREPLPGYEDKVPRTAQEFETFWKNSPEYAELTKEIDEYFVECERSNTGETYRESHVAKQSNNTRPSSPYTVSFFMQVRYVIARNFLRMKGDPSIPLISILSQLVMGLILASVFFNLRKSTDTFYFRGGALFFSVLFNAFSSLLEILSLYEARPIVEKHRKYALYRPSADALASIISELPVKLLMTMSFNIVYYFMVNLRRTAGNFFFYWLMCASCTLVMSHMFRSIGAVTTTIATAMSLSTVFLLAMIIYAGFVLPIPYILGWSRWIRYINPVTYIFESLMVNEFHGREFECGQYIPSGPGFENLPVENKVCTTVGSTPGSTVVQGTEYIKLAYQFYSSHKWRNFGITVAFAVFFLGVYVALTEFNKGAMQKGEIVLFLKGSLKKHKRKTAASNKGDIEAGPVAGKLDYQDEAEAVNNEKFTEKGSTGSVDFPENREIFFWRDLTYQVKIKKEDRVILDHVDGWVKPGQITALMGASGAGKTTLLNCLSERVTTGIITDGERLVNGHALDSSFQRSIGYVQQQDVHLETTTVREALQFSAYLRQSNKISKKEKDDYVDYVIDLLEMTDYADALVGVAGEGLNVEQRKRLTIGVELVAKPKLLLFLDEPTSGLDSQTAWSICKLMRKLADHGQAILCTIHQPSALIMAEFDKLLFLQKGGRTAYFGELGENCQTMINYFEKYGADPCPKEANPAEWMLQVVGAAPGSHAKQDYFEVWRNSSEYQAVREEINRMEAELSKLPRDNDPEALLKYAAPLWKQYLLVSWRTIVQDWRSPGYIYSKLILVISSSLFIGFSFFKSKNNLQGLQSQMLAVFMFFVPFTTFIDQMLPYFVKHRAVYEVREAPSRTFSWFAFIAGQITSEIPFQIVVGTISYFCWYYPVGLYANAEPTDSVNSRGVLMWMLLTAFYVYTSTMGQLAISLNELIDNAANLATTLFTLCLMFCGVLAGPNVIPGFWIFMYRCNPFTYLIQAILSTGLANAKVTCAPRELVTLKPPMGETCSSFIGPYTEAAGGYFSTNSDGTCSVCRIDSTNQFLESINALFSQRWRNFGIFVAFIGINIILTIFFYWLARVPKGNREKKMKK
Sequence of pCDRI (ABC) efflux pump in S. cerevisiae YEM-1 (P43071 whole entry): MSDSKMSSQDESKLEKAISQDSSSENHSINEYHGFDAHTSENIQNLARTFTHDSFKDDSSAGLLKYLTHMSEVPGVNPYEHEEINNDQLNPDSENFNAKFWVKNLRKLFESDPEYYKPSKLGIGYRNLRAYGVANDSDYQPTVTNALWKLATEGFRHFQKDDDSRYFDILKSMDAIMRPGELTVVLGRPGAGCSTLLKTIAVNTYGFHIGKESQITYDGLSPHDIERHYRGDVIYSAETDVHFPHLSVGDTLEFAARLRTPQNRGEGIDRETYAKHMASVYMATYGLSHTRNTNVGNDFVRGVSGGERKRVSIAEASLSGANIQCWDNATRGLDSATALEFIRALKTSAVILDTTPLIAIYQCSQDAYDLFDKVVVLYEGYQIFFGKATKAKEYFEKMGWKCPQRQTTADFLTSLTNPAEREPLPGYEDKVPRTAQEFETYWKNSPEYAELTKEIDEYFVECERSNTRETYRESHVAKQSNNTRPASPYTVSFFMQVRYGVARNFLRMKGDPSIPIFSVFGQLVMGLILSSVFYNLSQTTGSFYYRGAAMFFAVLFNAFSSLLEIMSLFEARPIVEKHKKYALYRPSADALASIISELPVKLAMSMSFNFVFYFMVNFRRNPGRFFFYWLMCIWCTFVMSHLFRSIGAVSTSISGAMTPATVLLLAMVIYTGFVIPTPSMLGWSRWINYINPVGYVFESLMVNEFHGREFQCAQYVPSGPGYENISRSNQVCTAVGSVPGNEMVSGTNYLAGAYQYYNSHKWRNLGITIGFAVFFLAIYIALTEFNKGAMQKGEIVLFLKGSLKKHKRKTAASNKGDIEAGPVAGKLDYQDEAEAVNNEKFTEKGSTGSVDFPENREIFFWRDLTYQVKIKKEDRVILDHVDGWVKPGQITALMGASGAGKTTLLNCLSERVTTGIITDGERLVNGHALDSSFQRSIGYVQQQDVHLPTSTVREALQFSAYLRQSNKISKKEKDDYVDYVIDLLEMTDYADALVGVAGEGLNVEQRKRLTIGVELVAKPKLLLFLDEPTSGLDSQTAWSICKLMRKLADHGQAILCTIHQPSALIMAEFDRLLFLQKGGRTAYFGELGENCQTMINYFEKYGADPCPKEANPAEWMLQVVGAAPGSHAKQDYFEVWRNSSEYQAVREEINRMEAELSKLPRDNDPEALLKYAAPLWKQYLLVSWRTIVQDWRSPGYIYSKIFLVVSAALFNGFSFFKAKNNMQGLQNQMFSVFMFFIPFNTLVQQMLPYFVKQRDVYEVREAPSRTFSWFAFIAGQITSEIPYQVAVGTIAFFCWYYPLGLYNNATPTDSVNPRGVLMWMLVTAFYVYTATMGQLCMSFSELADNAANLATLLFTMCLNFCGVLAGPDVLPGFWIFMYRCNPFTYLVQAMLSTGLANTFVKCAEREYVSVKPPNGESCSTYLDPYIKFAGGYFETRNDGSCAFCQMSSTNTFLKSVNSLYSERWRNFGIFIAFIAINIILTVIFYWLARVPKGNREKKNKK
Sequence of pCgCDR (ABC) efflux pump in S. cerevisiae YEM-39 (Q6FK23 whole entry): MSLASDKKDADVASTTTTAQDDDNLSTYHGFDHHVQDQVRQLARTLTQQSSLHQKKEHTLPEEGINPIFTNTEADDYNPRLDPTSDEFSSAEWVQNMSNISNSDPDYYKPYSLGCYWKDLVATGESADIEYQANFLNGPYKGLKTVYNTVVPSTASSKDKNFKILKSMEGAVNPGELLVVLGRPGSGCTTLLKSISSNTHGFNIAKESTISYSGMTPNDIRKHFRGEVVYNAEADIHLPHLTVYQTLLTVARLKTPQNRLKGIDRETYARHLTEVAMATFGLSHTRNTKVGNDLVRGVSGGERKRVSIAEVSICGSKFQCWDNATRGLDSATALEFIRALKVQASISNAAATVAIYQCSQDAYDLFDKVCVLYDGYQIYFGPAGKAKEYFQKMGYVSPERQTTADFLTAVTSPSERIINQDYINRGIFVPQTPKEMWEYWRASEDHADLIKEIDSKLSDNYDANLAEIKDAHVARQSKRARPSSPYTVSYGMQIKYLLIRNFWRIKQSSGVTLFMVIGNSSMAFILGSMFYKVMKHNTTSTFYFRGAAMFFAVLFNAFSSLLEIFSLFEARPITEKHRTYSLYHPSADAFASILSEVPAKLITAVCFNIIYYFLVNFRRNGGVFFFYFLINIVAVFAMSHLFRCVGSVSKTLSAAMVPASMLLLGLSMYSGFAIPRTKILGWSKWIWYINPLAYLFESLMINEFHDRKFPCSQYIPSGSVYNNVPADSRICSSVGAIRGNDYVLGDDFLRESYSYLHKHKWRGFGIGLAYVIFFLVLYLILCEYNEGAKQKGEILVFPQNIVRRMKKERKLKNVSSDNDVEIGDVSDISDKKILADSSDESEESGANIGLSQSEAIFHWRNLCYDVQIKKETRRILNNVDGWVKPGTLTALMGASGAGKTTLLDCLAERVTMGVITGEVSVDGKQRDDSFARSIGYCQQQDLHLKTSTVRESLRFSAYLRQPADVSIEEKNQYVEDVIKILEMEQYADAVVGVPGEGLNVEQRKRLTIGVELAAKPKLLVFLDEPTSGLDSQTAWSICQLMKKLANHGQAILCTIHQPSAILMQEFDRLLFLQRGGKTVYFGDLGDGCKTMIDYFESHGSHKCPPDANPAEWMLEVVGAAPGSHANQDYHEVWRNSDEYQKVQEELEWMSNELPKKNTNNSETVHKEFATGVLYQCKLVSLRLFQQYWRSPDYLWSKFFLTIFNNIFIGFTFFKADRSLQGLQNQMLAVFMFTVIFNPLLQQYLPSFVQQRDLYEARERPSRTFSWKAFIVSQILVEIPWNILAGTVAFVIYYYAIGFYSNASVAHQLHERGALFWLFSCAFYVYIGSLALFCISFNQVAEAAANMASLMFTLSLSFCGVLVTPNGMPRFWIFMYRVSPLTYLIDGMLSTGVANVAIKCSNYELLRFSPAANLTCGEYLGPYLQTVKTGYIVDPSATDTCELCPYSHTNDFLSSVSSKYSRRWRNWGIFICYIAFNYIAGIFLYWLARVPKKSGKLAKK

| Compound | FEPIhalf (concentration needed to reduce activity of efflux pump by 50%) [6] | MIC of compound in the presence of fluconazole (+) [7] [µg/mL] | MIC of compound in the absence of fluconazole (−) [7] [µg/mL] | MIC of compound in the presence of fluconazole (+) [8] | MIC of compound in the absence of fluconazole (−) [8] [µg/mL] | MIC of compound in the presence of fluconazole (+) (YEM 53 C. krusei) [µg/mL] | MIC of compound in the absence of fluconazole (−) (YEM 53 C. krusei) [µg/mL] | MIC of compound in the presence of fluconazole (+) [9] [µg/mL] | MIC of compound in the absence of fluconazole (−) [9] [µg/mL] | MIC of compound in the presence of fluconazole (+) (YEM 51 C. glabrata wt) [µg/mL] | MIC of compound in the absence of fluconazole (−) (YEM 51 C. glabrata wt) [µg/mL] | MIC of compound in the presence of fluconazole (+) (YEM 30 C. albicans wt) | MIC of compound in the absence of fluconazole (−) (YEM 30 C. albicans wt) [µg/mL] | MIC of compound in the presence of fluconazole (+) [10] [µg/mL] | MIC of compound in the absence of fluconazole (−) [10] [µg/mL] | MIC of compound in the presence of fluconazole (+) [11] [µg/mL] | MIC of compound in the absence of fluconazole (−) [11] [µg/mL] | FEPI MIC with fluconazole, 60% Inh (Aspergillus fumigatus) | FEPI MIC with fluconazole, 80% Inh (Aspergillus fumigatus) | FEPI MIC with itraconazole, 60% Inh (Aspergillus fumigatus) | other results |
| --- | --- | --- | --- | --- | --- | --- | --- | --- | --- | --- | --- | --- | --- | --- | --- | --- | --- | --- | --- | --- | --- |
| CO[C@@H]1C(C)=C[C@H]2C(=O)O[C@H]3C[C@@H](C/C=C(\C)C[C@@H](C)/C=C/C=C4\CO[C@H]1[C@@]42O)O[C@@]1(CC[C@H](C)[C@@H](C)O1)C3 [Compound 4, Milbemycin α2] | >64 | > 64 | > 64 | ≦0.03 | > 64 | 8 | > 64 | 2 | > 64 | 4 | > 64 | ≦0.03 | > 64 | > 64 | > 64 | 64 | > 64 | 1 | >64 | 2 | pIC50 [1]: 6.64; pIC50 [2]: 6.34; pIC50 [3]: 5.13; pIC50 [4]: < 3.93; pIC50 [5]: < 3.93; FEPI MIC with itraconazole, 80% Inh (Aspergillus fumigatus): >64; FEPI MIC with ketoconazole, 60% Inh (Aspergillus fumigatus): 0.5; FEPI MIC with ketoconazole, 80% Inh (Aspergillus fumigatus): 0.5; FEPI MIC (alone) (Aspergillus fumigatus): >64 |
| COc1cccc2c1C(=O)c1c(O)c3c(c(O)c1C2=O)C[C@@](O)(C(=O)CO)C[C@@H]3O[C@H]1C[C@H](N)[C@H](O)[C@H](C)O1 [Adriamycin, adriamycin, reference compound] |  |  |  |  |  |  |  |  |  |  |  |  |  |  |  |  |  |  |  |  | Adriamycin TC50, P388 [12]: 0.009 µg/mL; Adriamycin TC50, P388/ADM [13]: 2.954 µg/mL; Ratio [P388/A]/[P388] [14]: 337 |
| CCC(CC)C(=O)OCC1=C[C@H]2C(=O)O[C@H]3C[C@@H](C/C=C(\C)C[C@@H](C)/C=C/C=C4\CO[C@H]([C@@H]1O)[C@@]42O)O[C@@]1(CC[C@H](C)[C@@H](C)O1)C3 [Compound 21, 4a-O-(2-ethyl)butyryl milbemycin α1] | >64 | > 64 | > 64 | 1 µg/mL | > 64 | 8 | > 64 | 8 | > 64 | 8 | > 64 | 0.125 µg/mL | > 64 | > 64 | > 64 | > 64 | > 64 | 8 | 8 | 1 | pIC50 [1]: 5.81; pIC50 [2]: 5.21; pIC50 [3]: < 4.00; pIC50 [4]: < 4.00; pIC50 [5]: < 4.00; FEPI MIC with itraconazole, 80% Inh (Aspergillus fumigatus): 8; FEPI MIC with ketoconazole, 60% Inh (Aspergillus fumigatus): ≦0.063; FEPI MIC with ketoconazole, 80% Inh (Aspergillus fumigatus): ≦0.063; FEPI MIC (alone) (Aspergillus fumigatus): >64 |
| CCCCC(C)C(=O)OC1[C@@H](O)[C@]2(C[C@@H]3C[C@@H](C/C=C(\C)C[C@@H](C)/C=C/C=C4\CO[C@@H]5[C@H](OC)C(C)=CC(C(=O)O3)[C@]45O)O2)O[C@H](C)[C@H]1C (stereo partly drawn) [Compound 9, Milbemycin α6] | >64 | > 64 | > 64 | 0.125 µg/mL | > 64 | > 64 | > 64 | 0.5 | > 64 | 1 | > 64 | ≦0.03 | > 64 | > 64 | > 64 | > 64 | > 64 | 64 | >64 | 1 | pIC50 ([1]; read-out: FEPIhalf (concentration needed to reduce activity of efflux pump by 50%), YEM-1 pCDRI, fluconazole fixed at FLUhalf 5.6): 5.54; pIC50 ([2]; read-out: FEPIhalf (concentration needed to reduce activity of efflux pump by 50%), YEM-37 pCDR2, fluconazole fixed at FLUhalf 1): < 4.03; pIC50 ([3]; read-out: FEPIhalf (concentration needed to reduce activity of efflux pump by 50%), YEM-39 pCgCDR, fluconazole fixed at FLUhalf 4): 5.84; pIC50 ([4]; read-out: FEPIhalf (concentration needed to reduce activity of efflux pump by 50%), YEM-2 pBEN, fluconazole fixed at FLUhalf 5.6): < 4.03; pIC50 ([5]; read-out: FEPIhalf (concentration needed to reduce activity of efflux pump by 50%), YEM-38 pFLU, fluconazole fixed at FLUhalf 2): < 4.03; FEPI MIC with itraconazole, 80% Inh (Aspergillus fumigatus): >64; FEPI MIC with ketoconazole, 60% Inh (Aspergillus fumigatus): ≦0.063; FEPI MIC with ketoconazole, 80% Inh (Aspergillus fumigatus): ≦0.063; FEPI MIC (alone) (Aspergillus fumigatus): >64 |
